Results taken from patent US5766875A, “Metabolic monitoring of cells in a microplate reader” (priority 1995, dated 1998).
Like-named read-outs stand apart in the source and are kept apart here.

Tests used:
[1] = tested on: TF-1 cells; assay: Extracellular acidification by TF-1 cells in response to GM-CSF (Example 5); format: cell-based
Method: The results from using a preferred simple media (shown in Table 2) to monitor extracellular acidification by TF-I cells is shown in FIG. 13. The TF-1 cells and are grown in complete RPMI 1640 medium with 2.0 mM L-glutamine (Catalogue No. 430-1800, GIBCO-BRL, Grand Island, N.Y.) with added […], 50 μM β-mercaptoethanol, 1000 units/liter penicillin and 1.0 mg/liter streptomycin, 10% fetal bovine serum and Ing/ml GM-CSF (human Granulocyte/Macrophage--Colony Stimulating Factor) under 5% CO2 at 37° C.
The cells are maintained at between 5×10^5 cells per ml and 5×10^6 cells per ml. […]
The extracellular acidification measurements were done in a flat-bottom, 96-well polystyrene microplate placed in a THERMOmax™ microplate reader, set to 37° C. […] Extracellular acidification was measured with Automix™ on, and with SOFTMAX® software (Molecular Devices Corporation, Menlo Park, Calif.) and an Apple® Macintosh™ computer were used to kinetically monitor the optical density changes. The ratio of optical density at 560 nanometers/optical density at 420 nanometers, as a function of time, was measured by using the ODλ1 -ODλ2 feature of a THERMOmax™ microplate reader modified to measure ODλ1 /ODλ2 instead of ODλ1 -ODλ2 (as described previously). The log10 of the ratio of optical densities at 560 nanometers/optical density at 420 nanometers was calculated and plotted as a function of time. […]

[2] = tested on: TF-1 cells; assay: Effect of cell-affecting agents on activation of TF-1 cells by GM-CSF, extracellular acidification rate (Example 9); format: cell-based; conditions: for inhibition at 10 µM: Homo sapiens
Method: The cell effects of beta-Maleimido proprionic acid (NMPA), N-Ethyl maleimide (NEM), Ferricyanide (Fe3 CN)^-3 (i.e. FeCN) and Cupric o-phenanthroline (Cu o-Ph) on the activation of TF-1 cells by GM-CSF was measured by a procedure similar to that used in Example 5. TF-1 cells were starved overnight in media lacking GM-CSF. The cells were washed twice and re-suspended in simple indicator medium at 1×10^6 cells/ml. The simple indicator medium contained one of the following test substances: NMPA, MEM, FeCN or Cu o-Ph at the tested concentration. A control test, which had no cell-affecting agent, was run in parallel. The cells in the simple indicator medium with or without cell-affecting agents were warmed to 37° C. for 20 minutes prior to the addition of recombinant human GM-CSF (obtained from Sandoz/Schering-Plough Corp.) to a final concentration of 0.1 ng/ml, and the extracellular acidification rate was measured by monitoring OD560/OD420 at 37° C. for 45 minutes. Additionally, a set of cells were mock treated with an equal volume of simple indicator medium but without any GM-CSF as a control for GM-CSF activation. The acidification rates were calculated from the slope of log(OD560/OD420) from 20 to 40 minutes after addition of the GM-CSF.
Generally, 0.1 ng/ml of GM-CSF caused a 100-150% increase in extracellular acidification rate. The cell-affecting agents inhibited the response of extracellular acidification to GM-CSF. Thus, these cell-affecting agents are inhibitory cell-affecting agents, while GM-CSF is a stimulatory cell-affecting agent. The measurements were made in duplicate and results are shown below as % inhibition of the response to GM-CSF, relative to control cells which received GM-CSF only.

[3] = tested on: TF-1 cells; conditions: TF-1 cells in culture; earlier work; cited from earlier work
[4] = tested on: mammalian cells; conditions: cited from earlier work
[5] = Apparent pH change with temperature of buffering systems as indicated by phenol red; format: physicochemical; conditions: phenol red pH indicator; 50 mM total buffer; equilibrium with CO2 in air

GM-CSF: human Granulocyte/Macrophage--Colony Stimulating Factor
saturating levels (no observance of a dose response) [1]: greater than 0.05 ng/ml | increase in extracellular acidification rate ([2]; 0.1 ng/ml GM-CSF, 37° C.): 100-150% | concentration giving the optimum proliferation rate [3]: approximately 1 ng/ml

CCN1C(=O)C=CC1=O [NEM, N-Ethyl maleimide]
inhibition at 10 µM ([2]; TF-1, read-out: % Inhibition GM-CSF Response): 98%

O=S1(=O)OC(c2ccc(O)cc2)(c2ccc(O)cc2)c2ccccc21 [Phenol Red, phenolsulfonephthalein]
toxicity toward most mammalian cells [4]: minimal toxicity

O=S(=O)(O)CCCN1CCOCC1 [MOPS, 3-[N-Morpholino]propanesulfonic acid]
apparent change in pH with change in temperature [5]: less than 1 millipH/°C.

O=C(O)CCN1C(=O)C=CC1=O [NMPA, beta-Maleimido proprionic acid]
inhibitory effects on GM-CSF activation (in words) ([2]; 0.1 ng/ml GM-CSF, extracellular acidification): weak in comparison to NEM and Cu o-Ph | inhibition at 10 µM ([2]; TF-1, 10 μM, 0.1 ng/ml GM-CSF, duplicate, read-out: % Inhibition GM-CSF Response): 3%

O=S(=O)(O)CCN1CCOCC1 [MES, 2-[N-Morpholino]ethanesulfonic acid]
apparent change in pH with change in temperature [5]: -4.74 millipH/°C.

Cupric o-phenanthroline [Cu o-Ph]
% Inhibition GM-CSF Response ([2]; 25 μM, 0.1 ng/ml GM-CSF, duplicate): 43%
